Assay [1] deals with T1, MKK7 (Homo sapiens, UniProt O14733).
T1 sequence (O14733 1-419): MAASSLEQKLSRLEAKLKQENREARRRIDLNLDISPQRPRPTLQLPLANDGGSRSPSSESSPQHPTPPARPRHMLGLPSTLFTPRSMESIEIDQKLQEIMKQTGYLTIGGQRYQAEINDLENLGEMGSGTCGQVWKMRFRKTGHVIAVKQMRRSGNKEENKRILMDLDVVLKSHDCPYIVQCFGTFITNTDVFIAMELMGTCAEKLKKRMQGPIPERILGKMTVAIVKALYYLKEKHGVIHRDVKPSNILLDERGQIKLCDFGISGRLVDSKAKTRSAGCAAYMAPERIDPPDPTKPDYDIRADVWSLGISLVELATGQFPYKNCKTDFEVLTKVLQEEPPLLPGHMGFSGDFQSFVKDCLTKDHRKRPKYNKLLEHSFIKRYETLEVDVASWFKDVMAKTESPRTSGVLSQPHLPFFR
Nature of the assay: KINOMEscan competition binding assay, MKK7. The arrangement: M1/R419; host or cells: HEK-293. The following applies: ratio PoC (off-target)/PoC (MKK4). The method, boiled down:
(§1)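 DNA-tagged kinases expressed in HEK-293 cells compete between immobilized ligand on blocked beads and test compound at 100 nM; kinase retained on beads quantified by qPCR of the tag.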

The target in assay [2] is T2, BRaf (Homo sapiens, UniProt P15056).
T2 construct: purchased ProQinase GmbH, Freiburg, Germany (33PanQinase Assay Service)
Nature of the assay: 33PanQinase enzyme assay, BRaf. Format: biochemical. The following applies: ratio IC50(BRaf)/IC50(MKK4). The gist of the method:
(§2)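 33Pi incorporation, read by microplate scintillation counting, measured kinase activity after 60 min at 30 °C. Reactions were quenched with 2% (v/v) H3PO4 and washed with 0.9% NaCl. IC50 derived by least-squares fitting; single doses reported as % residual activity.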

Assay [3] concerns the target T3, JNK1 (Homo sapiens, UniProt P45983). Nature of the assay: KINOMEscan competition binding assay, JNK1. Set-up: M1/Q384; host or cells: HEK-293. To be noted: ratio PoC (off-target)/PoC (MKK4). The method, boiled down: as §1
Target sequence in this assay (P45983 1-384 isoform P45983-2): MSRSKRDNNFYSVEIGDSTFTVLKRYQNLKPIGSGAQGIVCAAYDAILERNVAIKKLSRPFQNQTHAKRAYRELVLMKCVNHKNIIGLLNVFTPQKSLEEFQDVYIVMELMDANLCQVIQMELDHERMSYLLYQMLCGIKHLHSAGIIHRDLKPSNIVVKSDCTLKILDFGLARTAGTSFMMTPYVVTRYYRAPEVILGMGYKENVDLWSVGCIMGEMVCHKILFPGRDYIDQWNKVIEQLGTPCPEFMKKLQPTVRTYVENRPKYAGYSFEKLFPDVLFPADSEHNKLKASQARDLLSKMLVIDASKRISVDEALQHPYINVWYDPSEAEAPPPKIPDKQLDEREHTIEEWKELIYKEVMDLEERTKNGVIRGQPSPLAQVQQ
Assay [4] has as its target T1, MKK7. Nature of the assay: 33PanQinase enzyme assay, MKK7. Format: biochemical. The arrangement: purchased ProQinase GmbH, Freiburg, Germany (33PanQinase Assay Service). The following applies: ratio IC50(MKK7)/IC50(MKK4). The gist of the method: as §2
The target in assay [5] is T2, BRaf. Nature of the assay: KINOMEscan competition binding assay, BRaf. The following applies: ratio PoC (off-target)/PoC (MKK4). The method, boiled down: as §1
In assay [6] the target is T4, MKK4 (Homo sapiens, UniProt P45985).
T4 construct: S84/D399; host or cells: HEK-293
T4 sequence (P45985 84-399): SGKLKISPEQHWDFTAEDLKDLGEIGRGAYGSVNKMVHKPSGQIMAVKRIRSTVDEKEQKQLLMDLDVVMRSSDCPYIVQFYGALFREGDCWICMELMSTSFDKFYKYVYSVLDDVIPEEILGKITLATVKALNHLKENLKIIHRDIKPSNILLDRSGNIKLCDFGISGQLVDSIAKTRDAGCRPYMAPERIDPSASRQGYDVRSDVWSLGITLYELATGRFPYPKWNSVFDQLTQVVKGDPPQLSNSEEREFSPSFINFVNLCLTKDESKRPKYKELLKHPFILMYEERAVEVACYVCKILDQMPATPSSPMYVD
Nature of the assay: KINOMEscan competition binding assay, MKK4. The following applies: residual percent of control binding (PoC) at 100 nM. The method, boiled down: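 Tested at 100 nM and reported as percent of control binding (PoC). MKK4 was produced in HEK-293 cells and DNA-tagged. Displacement from ligand-coated, blocked beads was read by qPCR of eluted kinase.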

Assay [7] has as its target T5, MKK4 (Homo sapiens, UniProt P45985).
T5 construct: purchased ProQinase GmbH, Freiburg, Germany (33PanQinase Assay Service)
T5 sequence (P45985 1-399): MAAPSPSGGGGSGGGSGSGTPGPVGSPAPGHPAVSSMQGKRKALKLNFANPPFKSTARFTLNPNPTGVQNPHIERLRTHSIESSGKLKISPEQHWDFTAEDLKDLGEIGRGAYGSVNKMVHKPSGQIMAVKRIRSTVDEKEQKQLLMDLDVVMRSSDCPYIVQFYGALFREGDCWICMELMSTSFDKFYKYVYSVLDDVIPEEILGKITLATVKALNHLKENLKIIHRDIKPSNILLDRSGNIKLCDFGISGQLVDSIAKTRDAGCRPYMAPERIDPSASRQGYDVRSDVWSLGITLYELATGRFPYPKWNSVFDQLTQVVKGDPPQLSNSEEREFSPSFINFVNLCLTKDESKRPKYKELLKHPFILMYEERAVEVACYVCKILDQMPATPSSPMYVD
The experiment in a line: 33PanQinase enzyme assay, MKK4. The assay is classed as biochemical. To be noted: assay 'IC50'; read-out: Potency MKK4 (IC50). The gist of the method:
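Inhibition measured as 33Pi transfer to substrate after a 60-min, 30 °C reaction, acid-stopped and scintillation-counted.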

Assay [8] has as its target T3, JNK1. The experiment in a line: 33PanQinase enzyme assay, JNK1. Set-up: purchased ProQinase GmbH, Freiburg, Germany (33PanQinase Assay Service). To be noted: ratio IC50(JNK1)/IC50(MKK4). The assay is classed as biochemical. The method, boiled down:
as §2
Target sequence in this assay (P45983 whole entry): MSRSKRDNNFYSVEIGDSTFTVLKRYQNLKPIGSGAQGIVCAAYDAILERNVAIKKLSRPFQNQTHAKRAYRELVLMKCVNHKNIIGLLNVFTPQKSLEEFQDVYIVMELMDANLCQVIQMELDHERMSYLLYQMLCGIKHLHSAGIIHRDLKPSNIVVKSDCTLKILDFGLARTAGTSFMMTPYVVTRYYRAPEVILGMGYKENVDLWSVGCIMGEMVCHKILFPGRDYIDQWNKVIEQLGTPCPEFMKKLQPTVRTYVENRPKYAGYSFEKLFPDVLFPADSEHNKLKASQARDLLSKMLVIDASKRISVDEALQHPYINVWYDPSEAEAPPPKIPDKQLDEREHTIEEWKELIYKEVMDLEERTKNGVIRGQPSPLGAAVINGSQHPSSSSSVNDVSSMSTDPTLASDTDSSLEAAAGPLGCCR

Where only a bound is given, the exact number is not on record here.

T2 sequence (P15056 whole entry, species assumed): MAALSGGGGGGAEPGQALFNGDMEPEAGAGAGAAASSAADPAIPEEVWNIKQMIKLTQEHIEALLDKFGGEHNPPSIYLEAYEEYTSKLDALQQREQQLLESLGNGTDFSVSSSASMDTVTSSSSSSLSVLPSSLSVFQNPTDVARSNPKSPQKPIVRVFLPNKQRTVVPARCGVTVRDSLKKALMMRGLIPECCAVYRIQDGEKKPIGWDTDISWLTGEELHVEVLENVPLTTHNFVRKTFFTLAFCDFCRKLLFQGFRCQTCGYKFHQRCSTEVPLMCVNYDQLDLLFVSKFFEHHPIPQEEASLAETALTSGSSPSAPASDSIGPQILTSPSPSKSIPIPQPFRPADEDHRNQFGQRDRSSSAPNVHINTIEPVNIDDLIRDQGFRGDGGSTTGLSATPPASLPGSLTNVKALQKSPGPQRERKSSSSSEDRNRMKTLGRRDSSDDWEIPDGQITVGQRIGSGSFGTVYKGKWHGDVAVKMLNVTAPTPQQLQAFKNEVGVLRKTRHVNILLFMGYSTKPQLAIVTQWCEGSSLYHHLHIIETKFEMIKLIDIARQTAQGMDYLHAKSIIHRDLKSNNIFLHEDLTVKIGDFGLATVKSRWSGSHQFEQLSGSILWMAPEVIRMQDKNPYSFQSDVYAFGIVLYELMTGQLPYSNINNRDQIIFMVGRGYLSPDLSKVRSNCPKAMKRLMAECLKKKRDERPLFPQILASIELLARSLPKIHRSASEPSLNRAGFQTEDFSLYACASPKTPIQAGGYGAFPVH

For the compound `O=C(c1ccc(F)c(NS(=O)(=O)CCC(F)(F)F)c1F)c1c[nH]c2ncc(-c3cnc(NC4CC4)nc3)cc12` [Example 182], the “selectivity based on % Ctrl @100 nM vs. MKK7” value at MKK7 [1] is reported as “+++ (Ratio > 100)”. The “Selectivity Braf, IC50(off-target)/IC50(MKK4)” value (shortened to “Selectivity Braf”) on BRaf [2] was “+++ (IC50(off-target)/IC50(MKK4) > 100)”. Besides, the “selectivity based on % Ctrl @100 nM vs. JNK1” value on JNK1 [3] was “+++ (Ratio > 100)”. Also, the “Selectivity IVIKK7, IC50(off-target)/IC50(MKK4)” value (“Selectivity IVIKK7” below) on MKK7 [4] is recorded as “+++ (IC50(off-target)/IC50(MKK4) > 100)”. Moreover, on BRaf [5], the “selectivity based on % Ctrl @100 nM vs. Braf” value is recorded as “+++ (Ratio > 100)”. The “MKK4 [% Ctrl @ 100 nM” value at MKK4 [6] was “+++ (PoC < 1)”. The IC50 on MKK4 [7] is less than 100 nM. Further, the “Selectivity JNK1, IC50(off-target)/IC50(MKK4)” value (“Selectivity JNK1” below) at JNK1 [8] was “+++ (IC50(off-target)/IC50(MKK4) > 100)”.

As to `COc1ccc(-c2cnc3[nH]cc(C(=O)c4ccc(F)c(NS(=O)(=O)CCC(F)(F)F)c4F)c3c2)cn1` [Example 158, N-(2,6-difluoro-3-(5-(6-methoxypyridin-3-yl)-1H-pyrrolo[2,3-b]pyridine-3-carbonyl)phenyl)-3,3,3-trifluoropropane-1-sulfonamide], the “selectivity based on % Ctrl @100 nM vs. MKK7” value at MKK7 [1] is given as “+++ (Ratio > 100)”. Moreover, the “Selectivity Braf” value at BRaf [2] is reported as “++ (100 ≥ IC50(off-target)/IC50(MKK4) > 10)”. On JNK1 [3], the “selectivity based on % Ctrl @100 nM vs. JNK1” value is reported as “+++ (Ratio > 100)”. In addition, the “Selectivity IVIKK7” value at MKK7 [4] is “+++ (IC50(off-target)/IC50(MKK4) > 100)”. In addition, the “selectivity based on % Ctrl @100 nM vs. Braf” value at BRaf [5] is “+++ (Ratio > 100)”. The “MKK4 [% Ctrl @ 100 nM” value on MKK4 [6] is “+++ (PoC < 1)”. In addition, on MKK4 [7], the IC50 was less than 100 nM. For the same compound, the “Selectivity JNK1” value on JNK1 [8] was “+++ (IC50(off-target)/IC50(MKK4) > 100)”.

Regarding `CCCS(=O)(=O)Nc1ccc(F)c(C(=O)c2c[nH]c3ncc(-c4ccc(OC)c(OC)c4)cc23)c1F` [Example 105, N-(3-(5-(3,4-dimethoxyphenyl)-1H-pyrrolo[2,3-b]pyridine-3-carbonyl)-2,4-difluorophenyl)propane-1-sulfonamide], on MKK7 [1], the “selectivity based on % Ctrl @100 nM vs. MKK7” value is given as “++ (100 ≥ ratio > 10)”. For the same compound, the “Selectivity Braf” value at BRaf [2] is recorded as “◯ (3 ≥ IC50(off-target)/IC50(MKK4))”. The “selectivity based on % Ctrl @100 nM vs. JNK1” value at JNK1 [3] was “++ (100 ≥ ratio > 10)”. The “Selectivity IVIKK7” value at MKK7 [4] is listed as “+++ (IC50(off-target)/IC50(MKK4) > 100)”. The “selectivity based on % Ctrl @100 nM vs. Braf” value at BRaf [5] is “◯ (3 ≥ Ratio)”. For the same compound, the “MKK4 [% Ctrl @ 100 nM” value on MKK4 [6] was “++ (1 ≤ PoC < 3)”. Besides, at MKK4 [7], the half-inhibitory concentration (IC50) fell in the range of 100 to 1000 nM. The “Selectivity JNK1” value at JNK1 [8] was “++ (100 ≥ IC50(off-target)/IC50(MKK4) > 10)”.

With `O=C(c1ccc(F)c(NS(=O)(=O)CCC(F)(F)F)c1F)c1c[nH]c2ncc(-c3cnc(N4CCCCC4)nc3)cc12` [Example 181, N-(2,6-difluoro-3-(5-(2-(piperidin-1-yl)pyrimidin-5-yl)-1H-pyrrolo[2,3-b]pyridine-3-carbonyl)phenyl)-3,3,3-trifluoropropane-1-sulfonamide], the “selectivity based on % Ctrl @100 nM vs. MKK7” value at MKK7 [1] is “+++ (Ratio > 100)”. In addition, at BRaf [2], the “Selectivity Braf” value is “+++ (IC50(off-target)/IC50(MKK4) > 100)”. The “selectivity based on % Ctrl @100 nM vs. JNK1” value at JNK1 [3] was “+++ (Ratio > 100)”. Besides, the “Selectivity IVIKK7” value at MKK7 [4] is on record as “+++ (IC50(off-target)/IC50(MKK4) > 100)”. Also, the “selectivity based on % Ctrl @100 nM vs. Braf” value on BRaf [5] was “+++ (Ratio > 100)”. In addition, the “MKK4 [% Ctrl @ 100 nM” value on MKK4 [6] is listed as “+++ (PoC < 1)”. The IC50 on MKK4 [7] was 100 to 1000 nM. For the same compound, at JNK1 [8], the “Selectivity JNK1” value was “++ (100 ≥ IC50(off-target)/IC50(MKK4) > 10)”.

On to `CCCS(=O)(=O)Nc1ccc(F)c(C(=O)c2c[nH]c3ncc(-c4ccc(S(N)(=O)=O)nc4)cc23)c1F` [Example 53], for which the “selectivity based on % Ctrl @100 nM vs. MKK7” value at MKK7 [1] is “+++ (Ratio > 100)”. Besides, on BRaf [2], the “Selectivity Braf” value is on record as “◯ (3 ≥ IC50(off-target)/IC50(MKK4))”. Also, the “selectivity based on % Ctrl @100 nM vs. JNK1” value at JNK1 [3] was “+++ (Ratio > 100)”. In addition, on MKK7 [4], the “Selectivity IVIKK7” value is “+++ (IC50(off-target)/IC50(MKK4) > 100)”. Besides, the “selectivity based on % Ctrl @100 nM vs. Braf” value at BRaf [5] is “+ (10 ≥ ratio > 3)”. Also, the “MKK4 [% Ctrl @ 100 nM” value at MKK4 [6] is “+++ (PoC < 1)”. Further, the IC50 on MKK4 [7] lay in the range of 100 to 1000 nM. Moreover, the “Selectivity JNK1” value at JNK1 [8] is “◯ (3 ≥ IC50(off-target)/IC50(MKK4))”.

What is called IC50 is the concentration that gives 50% inhibition.
